Assay results reported in patent US9539298B2, “Lissencephaly therapeutic agent” (OSAKA CITY UNIVERSITY, priority 2010, dated 2017).

Test system: fibroblasts derived from human lissencephaly patient (Lis1 +/−)
Experiment: Protein quantitative analysis (western blotting) in human fibroblasts
Format: cell-based
Details: final SNJ-1945 concentration=200μ, 2-hour culture, FIGS. 21 and 22
Protocol: In a clean bench, the cells were placed in a 6-well plate in an amount of 3×10^5 cells per well and cultured for 16 hours, thereby adhering the cells to each well. The culture medium in the well was discarded, and the SNJ-1945-containing culture solution (the culture solution containing SNJ-1945-dissolved in Dimethyl Sulfoxide (Sigma, D-5879); final SNJ-1945 concentration=200μ) was added in an amount of 2 ml/well, and a 2-hour culture was performed. As a control, another culture was performed using a culture medium containing the same amount of Dimethyl Sulfoxide (Sigma, D-5879).
After 2-hour culture by adding SNJ-1945, the cells were washed twice with PBS (−), 500 μl of PBS (−), was added and the cells were scraped with a cell scraper. The scraped cells were collected to a 1.5 ml tube to be subjected to centrifugation for 5 minutes at 4° C. and 15000 rpm; the supernatant was discarded, and a cell precipitate was obtained. […]
The absorbency of the cell extract was measured, and the protein amount of the entire solution was determined. […] The absorbency at 595 nm was measured using an ARVO Sx (PerkinElmer) 96-well plate reader, and the entire protein amount was determined.
Then, SDS-PAGE was conducted. […] Based on the protein amount determined by the Bradford method, the cells were loaded to each well of the gel in an amount of 10 μg/well. […]

Compound: COCCOCCOC(=O)N[C@@H](CC(C)C)C(=O)N[C@@H](Cc1ccccc1)C(=O)C(=O)NC1CC1 [compound 17, ((1S)-1-((((1S)-1-Benzyl-2,3-dioxo-3-(cyclopropylamino)propyl)amino)carbonyl)-3-methylbutyl)carbamic acid 5-methoxy-3-oxapentyl ester]
- LIS1 amount (western blotting): recovered nearly to the extent of the LIS1 level
- amount of cytoplasmatic dynein intermediate chain (western blotting): also increased
